How the values were obtained:
Meloidogyne incognita = assay: Critical concentration test (soil treatment, lettuce root galls); format: in vivo; conditions: active compound concentration of 20 ppm in soil, greenhouse 25° C., evaluated after three weeks
Description: Critical Concentration Test [table] To produce a suitable preparation of active compound, 1 part by weight of active compound is mixed with the stated amount of solvent, the stated amount of emulsifier is added and the concentrate is diluted to the desired concentration. The preparation of active compound is intimately mixed with the soil which is contaminated with the test nematodes. The concentration of the active compound in the preparation is here virtually unimportant, only the amount of active compound per volume unit of soil, which is stated in ppm (=mg/l), is decisive. The treated soil is filled into pots, lettuce is sown in and the pots are kept at a greenhouse temperature of 25° C. After three weeks, the roots of the lettuces are examined for infestation by nematodes (root galls), and the efficacy of the active compound in % is determined. The efficacy is 100% when infestation is avoided completely and 0% when the infestation level is just as high as in the control plants in untreated, but equally infested, soil.

melting point: 125 °C
Structure (SMILES): CC(=NC#N)NC(C)c1ccc(Cl)cc1 (centres unmarked) [Preparation Example 1, [R]-N-cyano-N′-(4-chlorophenyl-eth-1-yl)-ethaneimidamide]
kill (efficacy of the active compound in %) (Meloidogyne incognita): 100%
